Measured values taken from patent US20230285405A1, “Pharmaceuticals for Treating or Preventing Nidoviruses and Picornaviruses” (priority 2020, published 2023).
Counter-ions that a name gives are not always drawn. Like-named read-outs stand apart in the source and are kept apart here.

Experiments:
OC43 = test: Drug screening: OC43 nucleoprotein staining in infected A549-mRuby cells; format: cell-based, human beta coronavirus OC43; details: for activity at 10 µM: Betacoronavirus 1, OC43, 96 h
Protocol: A549-mRuby cells were seeded (3,000 cells per well) in nine 384-well plates using Multidrop combi. Cells were seeded in a final volume of 30 μl with DMEM+10% BCS. The following day, 20 μl of OC43 were added (MOI 0.3) and incubated at 33° C., 5% CO2 for 1 hour. 50 nl from the Selleck FDA-approved drug library (cat #L1300, Selleck) were added (1:1,000 dilution). Two columns (32 wells) were left uninfected and two columns were treated with DMSO and virus (no drug control). Cells were imaged using the IncuCyte S3 to measure cell numbers at day 0. Cells were incubated for 4 days at 33° C., 5% CO2 and were stained for OC43 nucleoprotein. All the following steps were performed at room temperature. Cells were fixed in 50 μl 4% PFA/PBS for 15 min, blocked with 50 μl 10% BSA+0.5% Triton X-100 in PBS for 30 minutes, stained with 50 μl anti-OC43 (cat #MAB9013, Milipore) diluted 1:2,000 in 2% BSA+0.1% Triton X-100 in PBS for 1 hour, washed with 50 μl PBS three times, stained with anti-mouse-AlexaFluor488 diluted 1:1,000 in 2% BSA+0.1% Triton X-100 in PBS for 1 hour, washed with 50 μl PBS three times and imaged on the IncuCyte S3 (day 4). The screen was performed twice.
(§1) The following parameters were extracted from the images: number of cells at day 0, number of cells at day 4 and total OC43 staining intensity at day 4. For analysis, OC43 staining intensity was normalized to the number of cells in the well and further normalized to the mean of the no drug controls, which was set to 100. […] For each plate, a drug was considered as a putative hit if it reduced OC43 staining by over 3 standard deviations from the mean of the no drug controls. Drugs were considered hits if they were not toxic and reduced OC43 staining by over 3 standard deviations in both repeats.
(§2) A library of 1,900 clinically used drugs was screened, the drugs either approved for human use or having extensive safety data in humans (Phase 2 or 3 clinical trials), for their ability to inhibit OC43 infection of the human lung epithelial cell line A549 (expressing an H2B-mRuby nuclear reporter). One day after plating, cells were infected at an MOI of 0.3, incubated at 33° C. for 1 hour and drugs were added to a final concentration of 10 μM. Cells were then incubated at 33° C. for 4 days, fixed and stained for the presence of the viral nucleoprotein. The cells were imaged at day 0 (following drug addition) and day 4 (after staining) to determine the drugs effect on cell growth and OC43 infection.

A549-mRuby cells = test: Drug screening: effect on cell growth (cell number day 4 / day 0); details: 10 μM drug; for Growth_1: number of cells at day 4 divided by number of cells at day 0 / toxic_1: repeat #1; for Growth_2: number of cells at day 4 divided by number of cells at day 0 / toxic_2: repeat #2
Protocol: A549-mRuby cells were seeded (3,000 cells per well) in nine 384-well plates using Multidrop combi. Cells were seeded in a final volume of 30 μl with DMEM+10% BCS. The following day, 20 μl of OC43 were added (MOI 0.3) and incubated at 33° C., 5% CO2 for 1 hour. 50 nl from the Selleck FDA-approved drug library (cat #L1300, Selleck) were added (1:1,000 dilution). Two columns (32 wells) were left uninfected and two columns were treated with DMSO and virus (no drug control). Cells were imaged using the IncuCyte S3 to measure cell numbers at day 0. Cells were incubated for 4 days at 33° C., 5% CO2 and were stained for OC43 nucleoprotein. All the following steps were performed at room temperature. […] The screen was performed twice.
as §1, §2

[1] = 10 μM drug, MOI 0.3, 4 days, normalized to no-drug controls in the same plate, repeat #1, read-out: OC43_1: % staining of OC43 in screen repeat #1
[2] = 10 μM drug, MOI 0.3, 4 days, normalized to no-drug controls in the same plate, repeat #2, read-out: OC43_2: % staining of OC43 in screen repeat #2
[3] = 10 μM drug, MOI 0.3, 4 days, OC43 staining normalized to no-drug controls, mean of the two screen repeats, read-out: OC43_mean
[4] = 10 μM drug, MOI 0.3, 4 days, OC43 staining normalized to no-drug controls, mean of the two screen repeats
[5] = 10 μM drug, MOI 0.3, 4 days, normalized to no-drug controls in the same plate, repeat #1
[6] = 10 μM drug, MOI 0.3, 4 days, normalized to no-drug controls in the same plate, repeat #2

Structure (SMILES) | hit_1 (OC43; 10 μM drug, repeat #1) | hit_2 (OC43; 10 μM drug, repeat #2) | activity at 10 µM (OC43; [1]) [%] | activity at 10 µM (OC43; [2]) [%] | activity at 10 µM (OC43; read-out: OC43_mean) [%] | Growth_1: number of cells at day 4 divided by number of cells at day 0 (A549-mRuby cells) | toxic_1 (A549-mRuby cells) | Growth_2: number of cells at day 4 divided by number of cells at day 0 (A549-mRuby cells) | toxic_2 (A549-mRuby cells) | activity at 10 µM (OC43; [3]) [%] | Growth_1: number of cells at day 4 divided by number of cells at day 0 (A549-mRuby cells; Dihydrate) | Growth_2: number of cells at day 4 divided by number of cells at day 0 (A549-mRuby cells; Dihydrate) | OC43_mean (OC43; [4]) [%] | OC43_1: % staining of OC43 in screen repeat #1 (OC43; [5]) [%] | OC43_2: % staining of OC43 in screen repeat #2 (OC43; [6]) [%]
CCN(CCCc1ccccc1)CCCc1ccccc1 [Alverine Citrate] | 1 | 1 | 22.1 | 35.3 | 28.7 | 3.7 | 0 | 4.0 | 0 | – | – | – | – | – | –
CCCCc1oc2ccccc2c1C(=O)c1cc(I)c(OCCN(CC)CC)c(I)c1 [Amiodarone HCl] | 1 | 1 | 18.8 | 26.9 | – | 4.6 | – | 5.4 | – | 22.8 | – | – | – | – | –
CN(C)CCC=C1c2ccccc2CCc2ccccc21 [Amitriptyline HCl] | 1 | 1 | 11.2 | 34.3 | – | 3.7 | 0 | 4.1 | 0 | 22.8 | – | – | – | – | –
CN(C)N(C)C(=O)[C@@]1(Cc2ccccc2)CCCN(C(=O)[C@@H](Cc2c[nH]c3ccccc23)NC(=O)C(C)(C)N)C1 [Anamorelin] | 1 | 1 | 32 | 45.6 | – | 5.2 | 0 | 5.5 | 0 | 38.8 | – | – | – | – | –
CC[C@H]1OC(=O)[C@H](C)[C@@H](O[C@H]2C[C@@](C)(OC)[C@@H](O)[C@H](C)O2)[C@H](C)[C@@H](O[C@@H]2O[C@H](C)C[C@H](N(C)C)[C@H]2O)[C@](C)(O)C[C@@H](C)CN(C)[C@H](C)[C@@H](O)[C@]1(C)O [Azithromycin Dihydrate] | 1 | 1 | 20.5 | 15.9 | – | – | 0 | – | 0 | 18.2 | 5.4 | 5.0 | – | – | –
CC[C@H]1OC(=O)[C@H](C)[C@@H](O[C@H]2C[C@@](C)(OC)[C@@H](O)[C@H](C)O2)[C@H](C)[C@@H](O[C@@H]2O[C@H](C)C[C@H](N(C)C)[C@H]2O)[C@](C)(O)C[C@@H](C)CN(C)[C@H](C)[C@@H](O)[C@]1(C)O [Azithromycin] | – | – | – | – | – | 4.0 | – | 4.4 | – | – | – | – | 23.4 | 20.4 | 26.4
CCC(=O)OCC(=O)[C@@]1(OC(=O)CC)[C@@H](C)C[C@H]2[C@@H]3CCC4=CC(=O)C=C[C@]4(C)[C@@]3(Cl)[C@@H](O)C[C@@]21C [Beclomethasone dipropionate] | 1 | 1 | 38.3 | 29 | – | 3.4 | 0 | 4.6 | 0 | 33.6 | – | – | – | – | –
CN1C2CCC1CC(OC(c1ccccc1)c1ccccc1)C2.CS(=O)(=O)O (stereo not shown) [Benztropine mesylate] | 1 | 1 | 7.4 | 12.8 | – | 4.4 | 0 | 5.1 | 0 | 10.1 | – | – | – | – | –
CN(C)CCCOc1nn(Cc2ccccc2)c2ccccc12 [Benzydamine HCl] | 1 | 1 | 26.2 | 25.6 | – | 4.9 | 0 | 4.6 | 0 | 25.9 | – | – | – | – | –
COc1ccc(NC(=O)c2ccc(C(=N)N(C)C)cc2)c(C(=O)Nc2ccc(Cl)cn2)c1 [Betrixaban maleate] | 1 | 1 | 32 | 21.8 | – | 4.6 | 0 | 5.7 | 0 | 26.9 | – | – | – | – | –
COc1ccc(NC(=O)c2ccc(C(=N)N(C)C)cc2)c(C(=O)Nc2ccc(Cl)cn2)c1 [Betrixaban] | 1 | 1 | – | – | – | 5.3 | 0 | 5.5 | 0 | – | – | – | 32.0 | 30.2 | 33.7
CCCC1O[C@@H]2C[C@H]3[C@@H]4CCC5=CC(=O)C=C[C@]5(C)[C@H]4[C@@H](O)C[C@]3(C)[C@]2(C(=O)CO)O1 (stereo partly shown) [Budesonide] | 1 | 1 | 20.8 | 36.9 | – | 3.9 | 0 | 4.0 | 0 | 28.8 | – | – | – | – | –
C=C[C@H]1C[N@@]2CC[C@H]1C[C@@H]2[C@@H](O)c1ccnc2ccc(OC)cc12 [Quinidine sulfate] | 1 | 1 | 25.1 | 47.9 | – | – | – | – | – | – | – | – | – | – | –
